This note sets out measurements from PubChem BioAssay (NCI).

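Interpolation was linear, between the two tested concentrations surrounding the appropriate level; five concentrations were tested over 48 hours in 96-well plates. At the TGI there is no net growth.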

Experiment in all cases: NCI tumour cell line growth inhibition, 48 h
The subject of test [1] is SNB-19 CNS.
In test [2] the test system is TK-10 renal.
The subject of test [3] is OVCAR-3 ovarian.
For test [4], the system named is HCT-15 colon.
Test [5] has as its system RPMI-8226 leukemia.
Test [6] has as its system LOX IMVI melanoma.
The test system of test [7] is COLO 205 colon.
The subject of test [8] is U251 CNS.
The test system of test [9] is SN12C renal.
In test [10] the test system is SK-MEL-5 melanoma.
For test [11], the system named is UACC-257 melanoma.
Test [12] concerns M14 melanoma.
Test [13] concerns OVCAR-8 ovarian.
For test [14], the system named is IGROV1 ovarian.
Test [15] relates to MOLT-4 leukemia.
In test [16] the test system is HL-60(TB) leukemia.
Test [17] has as its system MCF7 breast.
Test [18] deals with CCRF-CEM leukemia.
Test [19] concerns MDA-MB-435.

In the case of `CC(=O)O[C@H]1CC[C@@]2(C)C(=CC[C@H]3[C@@H]4C/C(=C\c5ccc(N(C)C)cc5)[C@H](OC(C)=O)[C@@]4(C)CC[C@@H]32)C1`, the TGI was 27.3 µM in test [1]; 35.6 µM in [2]; 41.8 µM in test [3]; 31.9 µM in test [4]; above 100 µM in test [5]; 20.8 µM in [6]. Also, the TGI in [7] is 29.4 µM; in test [8], 19.4 µM; in test [9], 37.9 µM; in test [10], 74.9 µM; in test [11], 21.4 µM; in test [12], 36 µM. The TGI in test [13] is 23.4 µM; in [14] it was 28.4 µM; in [15], above 100 µM; in test [16], 41.2 µM; in test [17] it was 26.6 µM.

With `Cc1ccc(Cl)c2c(=O)c3ccc(N)cc3sc12`, the TGI is above 100 µM in test [1]; above 100 µM in test [2]; 47.7 µM in test [3]; 54.9 µM in test [4]; 42.3 µM in test [5]; 37.5 µM in [7]. In addition, the TGI in [9] was 32.9 µM; in test [10], 37.7 µM; in test [11], 90.7 µM; in [12], above 100 µM; in test [13] it was 52.6 µM; in [14] it was 28.7 µM. Moreover, the TGI in test [15] worked out at 50 µM; in test [18], 50.4 µM; in test [16], 20.4 µM; in test [17], 55.4 µM.

Consider `CNCCCn1c2ccccc2c2c3c(c(-c4ccsc4)cc21)C(=O)NC3=O`, for which the TGI in test [19] is 2.35 µM; in [1], 3.06 µM; in test [2], 3.23 µM; in test [3], 2.6 µM; in test [4], 2.74 µM; in test [7], 2.71 µM. Also, the TGI in [8] was 3.71 µM; in test [9] it was 2.7 µM; in test [10], 2.16 µM; in [11], 3.12 µM; in test [12], 1.7 µM; in test [13], 2.07 µM. Also, the TGI in [14] is 2.4 µM; in test [15], above 100 µM; in test [18] it was 3.24 µM; in test [16] it was 4 µM.

On to `Cn1cnnc1Sc1c([N+](=O)[O-])ncn1C`, for which the TGI in test [1], in [2], in [3], in test [5], in test [6] and in [7] was above 100 µM in each case. The TGI in test [8], in test [9], in [10], in test [11], in test [12] and in [13] was above 100 µM each time. Also, the TGI in test [14], in test [15] and in test [18] was above 100 µM throughout.

With `CN(C)/N=C1/CCC(C(F)(F)F)(C(F)(F)F)O1`, the TGI in test [19] was 76 µM; in test [1], above 100 µM; in test [2] it was above 100 µM; in test [3], 50.7 µM; in test [4] it was above 100 µM; in test [5] it was 85.5 µM. Further, the TGI is 66.5 µM in test [6]; 31.2 µM in test [7]; above 100 µM in test [8]; 81 µM in test [9]; 52.6 µM in test [10]; 68.1 µM in [12]. Besides, the TGI in test [14] is 82.7 µM; in [15], above 100 µM; in test [18], 90.3 µM; in test [16] it was 54.8 µM.

For the compound `O=C(Cn1c(-c2ccccc2)cc2ccccc21)N1CCCC1`, the TGI in [1], in test [3], in test [4], in test [6], in [7] and in test [9] was above 100 µM each time. The TGI in test [10], in test [11], in [12], in test [13], in [14] and in test [15] was above 100 µM throughout. In test [17], the TGI was above 100 µM.

As to `CC1CN=C(N(C(=O)Nc2ccccc2)c2ccc(Cl)c(Cl)c2)S1` (stereo unspecified), the TGI in test [1] was above 100 µM; in test [2], above 100 µM; in test [3], above 10 µM; in [4], above 100 µM; in test [5] it was above 100 µM; in test [6] it was 93.3 µM. The TGI in test [7] was above 10 µM; in [8] it was above 10 µM; in test [9], 56.6 µM; in test [10], 34.5 µM; in [11], above 100 µM; in test [12], above 100 µM. The TGI in test [13] was above 100 µM; in test [14] it was above 100 µM; in test [15] it was above 10 µM; in test [18], above 10 µM; in [16], above 100 µM; in test [17] it was above 100 µM.
